Assays:
SARS-CoV-2 M^pro [1] = target: T1, SARS-CoV-2 M^pro (Severe acute respiratory syndrome coronavirus 2, UniProt P0DTD1); type: biochemical; details: 0.2 µM M^pro, 2 h incubation at r.t., 4 µM substrate, Hill equation fit; read-out: Inhibition constants, Ki
SARS-CoV-2 M^pro [2] = target: T1, SARS-CoV-2 M^pro; assay: ESI MS of metallodrug-protein adduct formation; type: binding; details: protein-to-metal ratio 1:3 (1:1 for Au(PEt3)Br), 37 °C, 4 h incubation (up to 24 h)

SMILES	Ki (SARS-CoV-2 M^pro [1]) [nM]	protein metalation / adduct formation (ESI MS) (SARS-CoV-2 M^pro [2])
CCP(CC)CC.[Au+].[Cl-] [Au(PEt3)Cl]	660 ± 26	–
CCCC[n+]1ccn(C)[c]1[Au-][Cl] [Au(NHC)Cl]	870 ± 40	formation of a mono adduct
CC[P](CC)(CC)[Au][I] [Au(PEt3)I]	2120 ± 96	–
CC[P](CC)(CC)[Au][Br] [Au(PEt3)Br]	440 ± 22	–
